Assay results taken from the supplement of paper PMC6045584.
± gives the standard deviation of the averaged measurements.

Key:
MDV3100 = compound: CNC(=O)c1ccc(N2C(=S)N(c3ccc(C#N)c(C(F)(F)F)c3)C(=O)C2(C)C)cc1F [MDV3100]; assay: surviving fraction relative to DMSO-only wells; higher = less growth inhibition; conditions: exposure time: 5 days
Outline: (§1)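 Continuous five-day exposure to inhibitors at 0.5, 1, 5, 10, 50, 100, 500 and 1000 nM started 24 hours after log-phase tumour cell lines were seeded at 250–500 cells per well in 384-well plates. Luminescence was read after 10 minutes at room temperature. Viability is given as surviving fraction, meaning CellTiter-Glo luminescence normalised to the median of DMSO-only wells.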

SAPACITABINE [1] = compound: T1, CCCCCCCCCCCCCCCC(=O)Nc1ccn([C@@H]2O[C@H](CO)[C@@H](O)[C@@H]2C#N)c(=O)n1 [SAPACITABINE]; assay: as above; conditions: exposure time: 5 days
Outline: as §1

BI-2536 [2] = compound: T2, CC[C@@H]1C(=O)N(C)c2cnc(Nc3ccc(C(=O)NC4CCN(C)CC4)cc3OC)nc2N1C1CCCC1 [BI-2536]; assay: as above; conditions: exposure time: 5 days
Outline: as §1

AFATINIB [3] = compound: T3, CN(C)C/C=C/C(=O)Nc1cc2c(Nc3ccc(F)c(Cl)c3)ncnc2cc1O[C@H]1CCOC1 [AFATINIB]; assay: as above; conditions: exposure time: 5 days
Outline: as §1

SNX-5422 [4] = compound: T4, CC1(C)CC(=O)c2c(C(F)(F)F)nn(-c3ccc(C(N)=O)c(N[C@H]4CC[C@H](OC(=O)CN)CC4)c3)c2C1 [SNX-5422]; assay: as above; conditions: exposure time: 5 days
Outline: as §1

[5] = compound: Cn1cc(C2=Nc3cc(NC(=O)C(N)C4CCCCC4)cc4c3C2=CNNC4=O)cn1; assay: as above; conditions: exposure time: 5 days
Outline: as §1

CANERTINIB [6] = compound: T5, C=CC(=O)Nc1cc2c(Nc3ccc(F)c(Cl)c3)ncnc2cc1OCCCN1CCOCC1 [CANERTINIB]; assay: as above; conditions: exposure time: 5 days
Outline: as §1

TIOGUANINE [7] = compound: T6, Nc1nc2[nH]cnc2c(=S)[nH]1 [TIOGUANINE]; assay: as above; conditions: exposure time: 5 days
Outline: as §1

SAPACITABINE [8] = compound: T1, SAPACITABINE; assay: area under dose-response curve of surviving fraction (unscaled, Aref=0) (surviving fraction x log10(nM)); higher = more resistant; conditions: exposure time: 5 days; dose range 0.5-1000 nM
Outline: (§2)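 Inhibitor was applied to tumour cell lines at eight concentrations (0.5 to 1000 nM) for five days in 384-well plates. Luminescence from CellTiter-Glo, scaled to DMSO-only wells, gave surviving fractions in three screens per line, and these were fitted by 3-parameter logistic regression with the drc R package. The area under the curve is an unscaled activity area. Aref was 0, and dose was on a log10 scale.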

BI-2536 [9] = compound: T2, BI-2536; assay: as above; conditions: exposure time: 5 days; dose range 0.5-1000 nM
Outline: as §2

AFATINIB [10] = compound: T3, AFATINIB; assay: as above; conditions: exposure time: 5 days; dose range 0.5-1000 nM
Outline: as §2

SNX-5422 [11] = compound: T4, SNX-5422; assay: as above; conditions: exposure time: 5 days; dose range 0.5-1000 nM
Outline: as §2

[12] = compound: Cn1cc(C2=Nc3cc(NC(=O)C(N)C4CCCCC4)cc4c3C2=CNNC4=O)cn1; assay: as above; conditions: exposure time: 5 days; dose range 0.5-1000 nM
Outline: as §2

CANERTINIB [13] = compound: T5, CANERTINIB; assay: as above; conditions: exposure time: 5 days; dose range 0.5-1000 nM
Outline: as §2

TIOGUANINE [14] = compound: T6, TIOGUANINE; assay: as above; conditions: exposure time: 5 days; dose range 0.5-1000 nM
Outline: as §2

Q: What does the source list for MDAMB134 BREAST?
A: surviving fraction (MDV3100; 0.5 nM): 0.813 ± 0.09; surviving fraction (MDV3100; 1 nM): 0.82 ± 0.1; surviving fraction (MDV3100; 5 nM): 0.894 ± 0.2; surviving fraction (MDV3100; 10 nM): 0.918 ± 0.0099; surviving fraction (MDV3100; 50 nM): 1.06 ± 0.15; surviving fraction (MDV3100; 100 nM): 0.794 ± 0.033; surviving fraction (MDV3100; 500 nM): 1.17 ± 0.018; surviving fraction (MDV3100; 1000 nM): 0.992 ± 0.25; surviving fraction (SAPACITABINE [1]; 0.5 nM): 0.689 ± 0.09; surviving fraction (SAPACITABINE [1]; 1 nM): 0.627 ± 0.083; surviving fraction (SAPACITABINE [1]; 5 nM): 0.65 ± 0.046; surviving fraction (SAPACITABINE [1]; 10 nM): 0.7515 ± 0.0035; surviving fraction (SAPACITABINE [1]; 50 nM): 0.785 ± 0.036; surviving fraction (SAPACITABINE [1]; 100 nM): 0.821 ± 0.11; surviving fraction (SAPACITABINE [1]; 500 nM): 0.817 ± 0.058; surviving fraction (SAPACITABINE [1]; 1000 nM): 0.916 ± 0.054; surviving fraction (BI-2536 [2]; 0.5 nM): 0.944 ± 0.11; surviving fraction (BI-2536 [2]; 1 nM): 0.699 ± 0.069; surviving fraction (BI-2536 [2]; 5 nM): 0.792 ± 0.03; surviving fraction (BI-2536 [2]; 10 nM): 0.835 ± 0.034; surviving fraction (BI-2536 [2]; 50 nM): 1.2 ± 0.058; surviving fraction (BI-2536 [2]; 100 nM): 1.101 ± 0.0092; surviving fraction (BI-2536 [2]; 500 nM): 0.788 ± 0.0092; surviving fraction (BI-2536 [2]; 1000 nM): 0.644 ± 0.048; surviving fraction (AFATINIB [3]; 0.5 nM): 1.07 ± 0.046; surviving fraction (AFATINIB [3]; 1 nM): 0.997 ± 0.15; surviving fraction (AFATINIB [3]; 5 nM): 1.24 ± 0.25; surviving fraction (AFATINIB [3]; 10 nM): 0.967 ± 0.15; surviving fraction (AFATINIB [3]; 50 nM): 1.09 ± 0.078; surviving fraction (AFATINIB [3]; 100 nM): 0.886 ± 0.076; surviving fraction (AFATINIB [3]; 500 nM): 0.741 ± 0.031; surviving fraction (AFATINIB [3]; 1000 nM): 0.725 ± 0.12; surviving fraction (SNX-5422 [4]; 0.5 nM): 0.902 ± 0.096; surviving fraction (SNX-5422 [4]; 1 nM): 1.17 ± 0.23; surviving fraction (SNX-5422 [4]; 5 nM): 0.892 ± 0.26; surviving fraction (SNX-5422 [4]; 10 nM): 0.956 ± 0.052; surviving fraction (SNX-5422 [4]; 50 nM): 0.789 ± 0.098; surviving fraction (SNX-5422 [4]; 100 nM): 0.884 ± 0.036; surviving fraction (SNX-5422 [4]; 500 nM): 0.543 ± 0.0057; surviving fraction (SNX-5422 [4]; 1000 nM): 0.54 ± 0.12; surviving fraction ([5]; 0.5 nM): 0.9005 ± 0.0064; surviving fraction ([5]; 1 nM): 0.987 ± 0.062; surviving fraction ([5]; 5 nM): 0.908 ± 0.092; surviving fraction ([5]; 10 nM): 0.855 ± 0.17; surviving fraction ([5]; 50 nM): 0.642 ± 0.067; surviving fraction ([5]; 100 nM): 0.525 ± 0.14; surviving fraction ([5]; 500 nM): 0.442 ± 0.033; surviving fraction ([5]; 1000 nM): 0.505 ± 0.018; surviving fraction (CANERTINIB [6]; 0.5 nM): 0.622 ± 0.012; surviving fraction (CANERTINIB [6]; 1 nM): 0.659 ± 0.074; surviving fraction (CANERTINIB [6]; 5 nM): 0.562 ± 0.0064; surviving fraction (CANERTINIB [6]; 10 nM): 0.577 ± 0.0092; surviving fraction (CANERTINIB [6]; 50 nM): 0.767 ± 0.12; surviving fraction (CANERTINIB [6]; 100 nM): 0.831 ± 0.022; surviving fraction (CANERTINIB [6]; 500 nM): 0.868 ± 0.066; surviving fraction (CANERTINIB [6]; 1000 nM): 0.718 ± 0.016; surviving fraction (TIOGUANINE [7]; 0.5 nM): 0.993 ± 0.11; surviving fraction (TIOGUANINE [7]; 1 nM): 1.04 ± 0.12; surviving fraction (TIOGUANINE [7]; 5 nM): 0.909 ± 0.017; surviving fraction (TIOGUANINE [7]; 10 nM): 0.928 ± 0.11; surviving fraction (TIOGUANINE [7]; 50 nM): 1.04 ± 0.0028; surviving fraction (TIOGUANINE [7]; 100 nM): 1.1 ± 0.17; surviving fraction (TIOGUANINE [7]; 500 nM): 0.88 ± 0.049; surviving fraction (TIOGUANINE [7]; 1000 nM): 0.858 ± 0.073; area under dose-response curve (SAPACITABINE [8]): 2.57; area under dose-response curve (BI-2536 [9]): 2.89; area under dose-response curve (AFATINIB [10]): 3.16; area under dose-response curve (SNX-5422 [11]): 2.8; area under dose-response curve [12]: 2.44; area under dose-response curve (CANERTINIB [13]): 2.36; area under dose-response curve (TIOGUANINE [14]): 3.2
